Experimental data reported in US9650420B2, “Peptides for preventing or treating bone diseases and use thereof” (KYUNGPOOK NATIONAL UNIVERSITY INDUSTRY—ACADEMIC COOPERATION …, priority 2015, dated 2017).
Where no end group is shown, it is not given here.

Experiments:
[1] = tested on: adhesion factors for hematopoietic stem cells present in osteoblasts; assay: Expression level of adhesion factors in osteoblasts differentiated from BM-MSC (real-time quantitative PCR); assay type: cell-based, C57BL/6 mouse; conditions: osteoblasts treated with 0 nM and 10 nM for three days, compared with untreated Control; p<0.05
Source text: After a 4-week- to 6-week-old C57BL/6 mouse was anesthetized and sacrificed, the tibias and the femurs were removed. Bone marrow was harvested from the tibias and the femurs, and a single cell suspension was obtained by using a 40 μm cell strainer (Becton-Dickinson LAβware, Franklin Lakes, N.J.). About 10^7 cells were divided in a 75-cm^2 flask including Mesenchymal Stem Cell Stimulatory Supplements (Stem Cell Technologies, Inc.) added with antibiotics and MesenCult™ MSC Basal medium. After being cultured for one week, the cells were cultured for three weeks in StemXVivo Osteogenic/Adipogenic Base Media (R&D systems) added with StemXVivo Osteogenic supplement (20×) and penicillin-streptomycin (100×) for differentiation into osteoblasts. The culture media were replaced every 2 to 3 days.
(§1) In order to measure expression levels of adhesion factors (Sdf-1a, Kitl, Angpt1, IL7, Vcam1, Spp1) for hematopoietic stem cells present in osteoblasts, a real-time quantitative PCR was used.
An RNeasy Plus mini kit (Qiagen, Korea, Ltd.) was used to extract total RNA from a cell eluent and bone marrow cells. […] Further, a Corbett research RG-6000 real-time PCR device was used to perform a real-time quantitative PCR repeatedly for 40 cycles under a condition of 95° C. for 10 minutes; 95° C. for 10 seconds; 58° C. for 15 seconds; and 72° C. for 20 seconds per cycle. […]

[2] = tested on: adhesion factors (Sdf-1a, Kitl, Angpt1, IL7, Vcam1, Spp1) for hematopoietic stem cells; assay: Expression level of adhesion factors for hematopoietic stem cells in bone marrow of normal mice (real-time quantitative PCR); assay type: in vivo, C57BL/6 mice; conditions: normal mouse, 50 μg/kg intravenous injection to tail, bone marrow harvested after 60 minutes; p<0.05
Protocol: Osteopep1 used herein was produced by PEPTRON. For in vitro experiment, 0 nM Osteopep1 and 10 nM Osteopep1 were diluted in respective media and then injected. Further, for in vivo experiment, three mice per group, fifteen mice in total, were anesthetized with a mixed solution of 100 mg/kg of ketamine and 10 mg/kg of xylazine. Further, the each mouse was administered with 50 μg/kg of Osteopep1 and 100 μl of PBS (Gibco) by intravenous injection to its tail.
as §1
An RNeasy Plus mini kit (Qiagen, Korea, Ltd.) was used to extract total RNA from a cell eluent and bone marrow cells. A kit produced by Clontech (Mountain View, Calif.) was used to synthesize cDNA from 5 μg of the total RNA. Further, a Corbett research RG-6000 real-time PCR device was used to perform a real-time quantitative PCR repeatedly for 40 cycles under a condition of 95° C. for 10 minutes; 95° C. for 10 seconds; 58° C. for 15 seconds; and 72° C. for 20 seconds per cycle. […]

[3] = tested on: bone marrow hematopoietic stem cells; assay: Mobilization of bone marrow hematopoietic stem cells to blood in osteoporosis model, by markers of bone marrow hematopoietic stem cells; assay type: in vivo, mice; conditions: osteoporosis (ovariectomy) model, 50 μg/kg intraperitoneally every 12 hours for 3 weeks; p<0.05
Protocol: FIG. 9 is a diagram illustrating a mobilization level of bone marrow hematopoietic stem cells to blood when Osteopep1 is administered to an osteoporosis model, by using a marker of a bone marrow hematopoietic stem cell.
(§2) After 1 week, 50 μg/kg of Osteopep1 (PEPTRON) and 100 μl of PBS (Gibco) were intraperitoneally administered every 12 hours twice per day for 3 weeks.
In order to check whether mobilization of bone marrow hematopoietic progenitor cells to blood in an osteoporosis model is induced by Osteopep1 of the present disclosure, the following experiment was conducted.

[4] = tested on: bone marrow hematopoietic progenitor cells in blood; assay: CFU assay: mobilization of bone marrow hematopoietic progenitor cells to blood in osteoporosis model; assay type: in vivo, mice; conditions: osteoporosis (ovariectomy) models, 50 μg/kg intraperitoneally every 12 hours for 3 weeks; p<0.05
Protocol: After 1 week, 50 μg/kg of Osteopep1 (PEPTRON) and 100 μl of PBS (Gibco) were intraperitoneally administered every 12 hours twice per day for 3 weeks. […] In order to measure the number of bone marrow hematopoietic progenitor cells in blood of a mouse, CFU assays were conducted. A mouse was anesthetized, and then, 500 μl to 700 μl of blood was collected from the heart into a heparin tube. Then, the collected blood was put into an ammonium chloride solution (Stem Cell Technologies, Inc. 1:10) and then placed in ice for 15 minutes, and red blood cells were removed. The resultant solution was shaken every 2 to 3 minutes to remove red blood cells well, and then, centrifuged for 7 minutes at 1000 rpm. The supernatant was removed, and the resultant solution was washed with IMDM (Gibco) supplied with 2% fetal bovine serum (FBS) (Gibco). The washed cells (3×10^5 per mouse) were divided into three 35 mm dishes (1×10^5 per dish) respectively including methylcellulose-based media (Methocult, Stem cell), and then, cultured for 2 weeks. Then, the number of colonies in the flask was counted. In order to find out effects of administration of Osteopep1 of the present disclosure on bone marrow hematopoietic progenitor cells mobilized to blood in an osteoporosis model, an experiment was conducted in the same manner as the method of Example 1-4.

[5] = tested on: bone marrow hematopoietic stem cells (Lineage, Sca-1, c-kit); assay: Flow cytometry (FACs): number of bone marrow hematopoietic stem cells in bone marrow of normal mice; assay type: in vivo, C57BL/6 mice; conditions: 50 μg/kg vs PBS, bone marrow harvested after 60 minutes, p<0.05
Protocol: In order to find out any change in the number of bone marrow hematopoietic stem cells present in bone marrow of mice, Osteopep1 and PBS were injected to normal mice, respectively. After 60 minutes, bone marrow was harvested, and FACs was conducted to the harvested bone marrow by using three kinds of antibodies including Lineage, Sca-1, and c-kit as markers of bone marrow hematopoietic stem cells.
For analyzing bone marrow hematopoietic stem cells, red blood cells were removed from bone marrow, which was harvested from the tibias and the femurs of a 4-week- to 6-week-old C57BL/6 mouse, with an ammonium chloride solution (Stem Cell Technologies, Inc. 1:4) and then, the bone marrow was washed with a PBS (Gibco) solution including 10% fetal bovine serum (FBS) (Gibco) and 1% sodium azide (Sigma-Aldrich) and centrifuged for 10 minutes at 300×g. The hematopoietic cells included in the bone marrow were removed with MACs beads (Miltenyi Biotec) by using a biotinylated lineage antibody (Miltenyi Biotec), and the remaining cells were reacted at 4° C. for 30 minutes by using Sca-1-PECY7, c-kit-APC, CD150-PE, and CD48-FITC antibodies (BD science) and then analyzed with a flow cytometer LSRII (BD science).
Firstly, normal mice were divided into two groups each including 3 mice, and the respective groups were administered with 50 μg/kg of Osteopep1 and 100 μl of PBS (Gibco). […]

[6] = tested on: adhesion factors (Sdf-1a, Kitl, Angpt1, IL7, Vcam1, Spp1) for hematopoietic stem cells; assay: Expression of adhesion factors for bone marrow hematopoietic stem cells in osteoporosis model (real-time quantitative PCR); assay type: in vivo, mice; conditions: osteoporosis (ovariectomy) models, 50 μg/kg intraperitoneally every 12 hours for 3 weeks; p<0.05
Protocol: as §2, §1
An RNeasy Plus mini kit (Qiagen, Korea, Ltd.) was used to extract total RNA from a cell eluent and bone marrow cells. A kit produced by Clontech (Mountain View, Calif.) was used to synthesize cDNA from 5 μg of the total RNA. Further, a Corbett research RG-6000 real-time PCR device was used to perform a real-time quantitative PCR repeatedly for 40 cycles under a condition of 95° C. for 10 minutes; 95° C. for 10 seconds; 58° C. for 15 seconds; and 72° C. for 20 seconds per cycle.
After 1 week, 50 μg/kg of Osteopep1 (PEPTRON) and 100 μl of PBS (Gibco) were intraperitoneally administered every 12 hours twice per day for 3 weeks. […] On the 22nd day, the femurs was separated from the mouse and refrigerated in 80% ethanol. Then, a bone density and a trabecular thickness were measured by micro CT. […]

[7] = tested on: bone marrow hematopoietic progenitor cells in blood; assay: Colony-forming unit (CFU) assay: number of bone marrow hematopoietic progenitor cells in blood of normal mice; assay type: in vivo, C57BL/6 mice; conditions: normal mouse, 50 μg/kg intravenous injection to tail, blood collected after 60 minutes; p<0.05
Protocol: In order to measure the number of bone marrow hematopoietic progenitor cells in blood of a mouse, CFU assays were conducted. A mouse was anesthetized, and then, 500 μl to 700 μl of blood was collected from the heart into a heparin tube. Then, the collected blood was put into an ammonium chloride solution (Stem Cell Technologies, Inc. 1:10) and then placed in ice for 15 minutes, and red blood cells were removed. The resultant solution was shaken every 2 to 3 minutes to remove red blood cells well, and then, centrifuged for 7 minutes at 1000 rpm. The supernatant was removed, and the resultant solution was washed with IMDM (Gibco) supplied with 2% fetal bovine serum (FBS) (Gibco). The washed cells (3×10^5 per mouse) were divided into three 35 mm dishes (1×10^5 per dish) respectively including methylcellulose-based media (Methocult, Stem cell), and then, cultured for 2 weeks. Then, the number of colonies in the flask was counted. In order to check whether mobilization of bone marrow hematopoietic progenitor cells to blood is induced by a decrease in expression level of the adhesion factors caused by administration of Osteopep1 of the present disclosure, a mouse was administered with 50 μg/kg of Osteopep1 by intravenous injection to its tail, and after 60 minutes, blood was collected from the heart. Then, a CFU (Colony-forming unit) assay was conducted thereto.

bone (femurs) = assay: Micro CT of femurs: bone density and trabecular thickness in osteoporosis (ovariectomy) model and control mice; assay type: in vivo; conditions: osteoporosis model mouse, 50 μg/kg intraperitoneally twice per day for 3 weeks, compared with PBS; micro CT on 22nd day
Protocol: After 1 week, 50 μg/kg of Osteopep1 (PEPTRON) and 100 μl of PBS (Gibco) were intraperitoneally administered every 12 hours twice per day for 3 weeks. […] The femurs was separated from the mouse and refrigerated in 80% ethanol. Then, for micro CT scanning, a tissue having a thickness of 40 μm was measured with a micro CT scanner (Inveon preclinical CT, Siemens Healthcare, Hoffman Estates, Ill.) under conditions including an exposure time of 600 msec, photon energy of 70 keV, and a current of 400 μA. In order to measure a bone density (bone volume/total volume) and a trabecular thickness, pieces each having a volume of 2.5×0.5×0 5 mm^3 from the same site of each group were measured with Siemens Inveon Software. […] After 1 week, 50 μg/kg of Osteopep1 (PEPTRON) and 100 μl of PBS (Gibco) were intraperitoneally administered every 12 hours twice per day for 3 weeks. […] On the 22nd day, the femurs was separated from the mouse and refrigerated in 80% ethanol. Then, a bone density and a trabecular thickness were measured by micro CT.

DNPGEDAPAEDMARY [Osteopep1]
expression levels of Sdf-1a, Kitl, and Angpt1 in osteoblasts [1]: concentration-dependently decreased | expression levels of the main adhesion factors Sdf-1a, Kitl, Angpt1, and Spp1 [2]: decreased | mobilized amounts of the markers of bone marrow hematopoietic stem cells [3]: increased | mobilization of bone marrow hematopoietic progenitor cells to blood (CFU assay) [4]: increased | bone marrow hematopoietic stem cells marked by Lineage, Sca-1, and c-kit in bone marrow (FACs) [5]: decreased | expression levels of the adhesion factors (Sdf-1a, Kitl, Angpt1, IL7, Vcam1, Spp1) for hematopoietic stem cells [6]: decreased | mobilization of bone marrow hematopoietic progenitor cells to blood (CFU assay) [7]: increased | bone density percentage (BV/TV, %) (bone (femurs)): increased | trabecular thickness (mm) (bone (femurs)): increased
